Assay results reported in US7388124B2 (priority 2001, dated 2008).
Where “and” joins values, the source holds several entries; their conditions need not be identical. Equal entries are not always repeated. Entries after “also recorded” stand apart in the source; their conditions may differ.

How the values were obtained:
rat pain model variants [1] = test: Analgesic effect in rat neurogenic pain model variants (overall statement); assay type: in vivo, Sprague Dawley rats
Procedure: (§1) The methods of preparation and testing were similar for all the variant pain models described in this example. Male Sprague Dawley rats initially weighing between 150 and 175 grams were housed singly. Baseline behaviors to stimulations of the paw on which the procedure was to be performed were recorded over several sessions after accommodation of 3-4 days, and the results were averaged and used as the baseline control data. The pain behaviors studied were static mechanical allodynia (e.g., light touch stimulation with von Frey fibers 4.56, 4.73, 4.93, and/or 5.07), dynamic mechanical allodynia (e.g., stimulation with moving camel hair brush), and/or mechanical hyperalgesia (e.g., pinprick stimulation).
(§2) After the baseline control data was collected, the specified procedure with a gel was performed near the chosen nerve of each variant group (see Tables 2-6 and 8-10), then the rats were tested post procedurally and intermittently for up to 77 days for behavioral changes (see Tables 2-6 and 8-11) and for their responses to substances with analgesic properties (see Tables 7 and 12).
(§3) The stimuli used to elicit pain behavior were the von Frey fibers, camel hair brush and pinprick, with 6 stimulations of each stimulus. Each variant pain model had the same sequence of stimuli with the positive responses averaged and a student T-test performed for the significance of the post procedural responses as compared to the baseline control data (see Tables 2-6 and 11); and for the post-analgesic responses as compared to the pre-analgesic behavioral data (see Tables 7 and 12).
(§4) The tunnels identified by the above studies were then used for the placement of the biocompatible gels by the chosen peripheral nerves. The gelatinous or viscous substances (i.e., the gels) placed by the peripheral nerves or nerve roots contained collagen (e.g., AVITENE® and gelatin) or hydrogels. The “collagen gel” used in the present study was composed of 0.8 grams of collagen as AVITENE® (microfibrillar collagen hemostat flour, Davol Inc., Cranston, R.I. 02920) and 0.7 grams of collagen as gelatin (Knox gelatin, Kraft Foods, Northfield, Ill. 60093) mixed with 14 cc of normal saline until homogenous. Then the collagen mixture was placed in a PYREX® bowl resting in a paper bowl and covered with a ceramic saucer, then heated for 20 seconds at full power in a microwave. The resulting viscous mixture was kept fluid in a warm water bath at 100-110° F., until used for the placement procedure. The wound hydrogels used in the present study were two types: one contains alginate (SAF-Gel® from ConvaTec of E. R. Squibb & Sons, Princeton, N.J.) and the other contains acemannan from Aloe vera L. (Carrasyn®V from Carrington Laboratories, Irving, Tex.). […] Such hydrogels are used in the care of open dermal wounds as well as in first and second degree burns since they provide a closed moist environment for wound healing.
(§5) The rats were anesthesized with 1.5% to 2% isoflurane for the percutaneous kinesthetic placement of the above “gels” by the specified nerves. Using an angled 23 gauge thin wall 1″ needle, approximately 0.1 cc-0.2 cc of gel was placed percutaneously with kinesthetic technique in the anatomically defined fascial tunnels of the chosen peripheral nerves as described below.
(§6) The doses were given intraperitoneally (I.P.) and behavioral stimulus testing began 40-80 minutes after the dose. The student's t-test (p<0.05) was performed for determining the significance of changes in behaviors associated with pain after the analgesic was administered.

rat pain model variants [2] = test: Mechanical hyperalgesia (pinprick) in rat pain model variants; assay type: in vivo, Sprague Dawley rats; details: for Pinprick # STIMULATIONS POST-ANALGESIC / Pinprick # ST[…]-ANALGESIC: of 6
Procedure: as §1, §2, §3, §4, §5, §6

rat pain model variants [3] = test: Dynamic mechanical allodynia (camel hair brush) in rat pain model variants; assay type: in vivo, Sprague Dawley rats; details: Morphine Sulfate 5 mg/kg (IP); n=12 rats; Pre Avg 4.75; p=1.5E-6
Procedure: as §1, §2, §3
The tunnels identified by the above studies were then used for the placement of the biocompatible gels by the chosen peripheral nerves. The gelatinous or viscous substances (i.e., the gels) placed by the peripheral nerves or nerve roots contained collagen (e.g., AVITENE® and gelatin) or hydrogels. […]

[4] = test system: open surgical rat model for CRPS I; details: prior art surgical model, Reyna et al. 1999; cited from earlier work
[5] = test system: Mice with Neural Compression; test: von Frey fiber and camel hair brush testing for mechanical allodynia in mice with collagen placed by the posterior tibial nerve; assay type: in vivo; details: for Average # Paw Withdrawals: of 10 stimulations, n=10 mice
Procedure: Biocompatible collagen was prepared for use in the present study. The collagen source was dry gelatin that was prepared using sterile techniques. The dry collagen was measured to 2.5 grams and mixed with 7.5 cc of sterile normal saline. The mixture was heated for 30 seconds in a microwave on 80% power, The mixture was kept soft in warm water (approximately 100 to 110 degrees).
The consistency of the resulting warm collagen was such that it was able to pass through a 23 gauge needle. Humidity and other factors such as temperature can affect the consistency of the substance. 1-cc syringes were used for injection of 0.2 to 0.25 cc of collagen. For the injection, 23 gauge 1″ standard luer lock hypodermic needles were used. The needles were very slightly dulled with a metal file at the tip and edges using sterile technique. The needles were angled at the midpoint with a bevel tip up. The angle was between 30 and 45 degrees, but any angle that allows for easy placement of the injected substance could be used. The needles were then attached to the collagen-filled one cc syringes. The syringes were kept in a warm water bath (100 to 110° F.) to maintain proper gel consistency.
The mice were lightly anesthetized with 1.5 to 2% isoflurane. The mice were then stabilized and aligned such that the left posterior leg was in view. The external anatomic landmarks of the posterior popliteal area were identified. The internal anatomy of this area including the posterior tibial nerve with its artery was mentally visualized with kinesthetic techniques. Kinesthetic techniques are methods that use the kinesthetic sense or the integration of the senses by which movement, mass, turgor, shape, resistance, elasticity, temperature, spatial relationships and position are commonly perceived. It also refers to the integrated use of multiple senses such as touch, proprioception, vision, and hearing. After location of the site for placement of the gel, the needle and syringe were then removed from the warm water bath. The distal portion of the needle was held loosely parallel to the tibia. The needle was allowed to gently penetrate through the dermis by pulling the skin taut over the popliteal fossa. With careful avoidance of tissue resistance, the needle tip, bevel up, was gently slipped beneath the fascial edge of the soleus muscle by the tibial nerve and artery into the deep posterior fascial compartment of the posterior tibial neurovascular tunnel, which is the neurovascular tunnel for the posterior tibial nerve and its proximal branches. When the tip of the needle was at the mid soleus muscle belly, the collagen mixture was slowly injected into the posterior tibial tunnel. The needle was removed and the animals allowed to recover from the anesthetic. All animals were normally moving freely within 20 minutes of anesthesia withdrawal.
Two days after placement of the collagen gel around the nerve, von Frey testing was again performed. Von Frey testing continued for 49 days. […]

rat pain model variants [6] = assay type: in vivo, Sprague Dawley rats; details: Morphine Sulfate 5 mg/kg (IP), n=12 rats
Procedure: Male Sprague Dawley rats initially weighing between 150 and 175 grams were housed singly. […] The pain behaviors studied were static mechanical allodynia (e.g., light touch stimulation with von Frey fibers 4.56, 4.73, 4.93, and/or 5.07), dynamic mechanical allodynia (e.g., stimulation with moving camel hair brush), and/or mechanical hyperalgesia (e.g., pinprick stimulation).
as §2
The stimuli used to elicit pain behavior were the von Frey fibers, camel hair brush and pinprick, with 6 stimulations of each stimulus.
as §4, §5, §6

O=C(c1ccccc1)c1ccc2n1CCC2C(=O)O (stereo not shown) [Ketorolac, ketorolac]
analgesic effect (significance) (rat pain model variants [1]; ketorolac 10% 0.1 cc IP, Table 7): no significant analgesic effect; also recorded: no significant analgesic properties
Pinprick # STIMULATIONS POST-ANALGESIC (rat pain model variants [2]; Ketorolac 10% 0.1 cc IP, 1 rat peroneal n. with Avitene collagen, pre 6): 6
Pinprick # STIMULATIONS POST-ANALGESIC (rat pain model variants [2]; Ketorolac 10% 0.1 cc IP, 1 rat tibial n. with Acemannan hydrogel, pre 6): 6
Pinprick # STIMULATIONS POST-ANALGESIC (rat pain model variants [2]; Ketorolac 10% 0.1 cc IP, 1 rat tibial n. with Alginate hydrogel, pre 6): 6
Pinprick # STIMULATIONS POST-ANALGESIC (rat pain model variants [2]; Ketorolac 10% 0.1 cc IP, single rats sciatic n. with Alginate hydrogel (two rats, pre 6 and 6)): 5 and 6
Pinprick # STIMULATIONS POST-ANALGESIC, Total (rat pain model variants [2]; Ketorolac 10% 0.1 cc IP, total of 5 rats, pre total 30, pre vs post p=3.7E-1): 29

CN1CC[C@]23c4c5ccc(O)c4O[C@H]2[C@@H](O)C=C[C@H]3[C@H]1C5.O=S(=O)(O)O [morphine, morphine sulfate]
Post Avg, Average Positive stimulations out of 6 total, Stim S Brush (rat pain model variants [3]): 1.69
analgesic response [4]: exhibited an analgesic response
Average # Paw Withdrawals ([5]; morphine 1 mg/kg IP, post procedure day 49 (8.71 before dose)): 8.71
Average # Paw Withdrawals ([5]; morphine 5 mg/kg IP, post procedure day 51 (8.88 before dose)): 6.66
Analgesic response (mechanical allodynia) ([5]; morphine at least 5 mg/kg IP): Analgesic responses were shown
Post Avg, Average Positive stimulations out of 6 total, Stim A vF 4.56 (rat pain model variants [6]; Pre Avg 2.83, p=1.6E-4): 0.33
Post Avg, Average Positive stimulations out of 6 total, Stim B vF 4.93 (rat pain model variants [6]; Pre Avg 3.33, p=1.3E-6): 0.58
Post Avg, Average Positive stimulations out of 6 total, Stim C vF 5.07 (rat pain model variants [6]; Pre Avg 3.33, p=6.1E-6): 0.83
analgesic effect (significance) (rat pain model variants [1]; morphine 5 mg/kg IP, Tables 7 and 12, within 40-80 minutes, listed as Morphine, sulfate): significant analgesic effect
analgesic effect (significance) (rat pain model variants [1]; morphine 5 mg/kg IP, Tables 7 and 12, within 40-80 minutes, listed as morphine Sulfate, sulfate): significant analgesic effects
Pinprick # ST[…]-ANALGESIC (rat pain model variants [2]; Morphine 5 mg/kg IP, 1 rat peroneal n. with Avitene collagen, pre 6): 1
Pinprick # ST[…]-ANALGESIC (rat pain model variants [2]; Morphine 5 mg/kg IP, 1 rat tibial n. with Acemannan hydrogel, pre 6): 2
Pinprick # ST[…]-ANALGESIC (rat pain model variants [2]; Morphine 5 mg/kg IP, 1 rat tibial n. with Alginate hydrogel, pre 6): 3
Pinprick # ST[…]-ANALGESIC (rat pain model variants [2]; Morphine 5 mg/kg IP, single rats sciatic n. with Alginate hydrogel (two rats, pre 6 and 6), sulfate): 2 and 4
Pinprick # ST[…]-ANALGESIC, Total (rat pain model variants [2]; Morphine 5 mg/kg IP, total of 5 rats, pre total 30, pre vs post p=2.1E-3): 12
Post Avg, Average Positive stimulations out of 6 total, Stim PP Pin Prick (rat pain model variants [2]; Morphine Sulfate 5 mg/kg (IP), n=12 rats, Pre Avg 5.67, p=2.0E-10): 2.17
